Test results from patent publication US12084411B2, “Hinokitiol analogues, methods of preparing and pharmaceutical compositions thereof” (The Board of Trustees of the University of Illinois, priority 2018, dated 2024).
Where a name gives a salt, the structure may show the parent alone. Marks after values point to notes of the source that are not given here. Values belong to the compound of their own block, whether it stands above or below them.

Legend:
fet3Δftr1Δ yeast [1] = test: Growth rescue of fet3Δftr1Δ yeast with small molecules in liquid media; format: cell-based, Saccharomyces cerevisiae; details: liquid low iron SD media, 10 μM FeCl3
Experimental: (§1) Growth rescue in yeast was performed similar to previously reported (20) using 10 μM hinokitiol in low iron SD liquid media containing 10 μM FeCl3 in a 96-well plate unless otherwise noted. Wild type and fet3Δftr1Δ controls treated with vehicle (DMSO) were performed under identical conditions using the same low iron SD media containing 10 μM FeCl3 in the absence of hinokitiol. Yeast were grown overnight in YPD media and diluted at an OD600 of 0.1 in SD media, diluted 10-fold, and incubated at 30° C. with continuous shaking (200 rpm). The OD600 was obtained 24-48 hours after inoculation unless otherwise noted.
(§2) Small molecule dose-response (FIG. 1F) with hinokitiol and C2-deoxy hinokitiol (C2deOHino, see synthesis below) was determined by addition of the small molecule (40X stock solution in DMSO) to give the indicated final concentrations.

wild-type yeast (WT) = test: Toxicity to wild type yeast (structure-activity study, FIG. 25)
Experimental: as §1, §2

[2] = Electrochemical studies (cyclic voltammetry) of iron:chelator complexes; format: physicochemical
Experimental: Potentiostatic electrochemical methods were performed on a CH Instruments electrochemical workstation (model 760 C, Austin, TX) on a three-electrode cell. Hg working electrodes were fabricated by the electrodeposition of Hg on a Pt wire utilizing the procedure previously described by Barton et al. (70). All experiments were reported versus a Ag/AgCl reference electrode and utilized a graphite auxiliary electrode. The electrolyte was sparged with UHP argon before measurements. A positive pressure of argon was maintained throughout the experiments.
Unless otherwise indicated, experiments used a 0.1 M Tris buffer in H2O or 1:1 MeOH:H2O at pH=7.2 using HNO3 and KOH as titrant. Unless otherwise indicated, experiments used a 100 mV/s scan rate, 100 μM Fe(NO3)3, and 500 μM small molecule. All redox potentials are recorded versus a normal hydrogen electrode (NHE).
The estimated redox potential of Fe(Hino)n was determined through extrapolation of the best-fit line of the determined redox potentials of Fe(Hino)n as a function of the concentration of MeOH in the 0.1 M Tris buffer at pH=7.2.

[3] = WST-8 toxicity in Caco-2 cells; details: human, wild type Caco-2 cells
Experimental: Determination of small molecule-mediated toxicity in Caco-2, MEL, and/or J774 cells was performed according to manufacturer instructions using a WST-8 kit (Cayman Chemical 10010199) similar to previously reported (76) using a 1000× stock of the indicated small molecule in DMSO to give the indicated final concentration.

[4] = Iron (II) binding affinity, ferrozine competition assay; details: pH 7.0
Experimental: (§3) Specifically, the association constant for iron (II) was determined by a ferrozine competition assay (KA of ferrozine=3.65×10^15) (60). FeCl2 (25 μM) was pre-mixed with ferrozine (75 μM) in a 25 mM MES/Tris buffer at pH=7.0 containing 62.5 mM sodium ascorbate. Then increasing concentrations of small molecule (from 40X stocks in DMSO) were added to the indicated final concentrations. The solutions were allowed to equilibrate for 24 hours before reading of the absorbance at 562 nm. […] The system was allowed to equilibrate overnight, and the absorbance corresponding to the Fe(chelator)3 complex was determined. The EC50 values for each chelator were calculated by a nonlinear curve fit (Hill1) on OriginPro by plotting the absorbance vs. concentration of titrant, and the KA for each complex was determined from the equation: KA, ligand=(KA, competitor*[EC50])/[ligand] where the ligand is the molecule originally bound to iron, and the competitor is the competing chelator.

[5] = in parenthesis, cited from earlier work; for pFe^III, literature value: References 104, 106
[6] = tested on: DMT1-deficient Caco-2 monolayers; test: 55Fe uptake and transport in DMT1-deficient Caco-2 monolayers; details: apical addition (hinokitiol 500 nM); pH 5.5 apical, pH 7.4 basolateral; four hours
Experimental: Media from differentiated Caco-2 monolayers (P25-50, 21-28 days post seeding) grown on PET inserts in 6-well plates was aspirated, and monolayers were rinsed with PBS. 2 mL of basolateral fluid (serum-free DMEM at pH=7.4 in 10 mM HEPES buffer) was added to the basolateralside, and 1 mL of apical fluid (serum-free DMEM at pH=5.5 in 10 mM MES buffer) containing 200 nM ^55FeCl3 or the indicated concentration of FeCl3 and either DMSO vehicle, hinokitiol, C2deOHino, deferiprone, PIH, SIH, or deferoxamine mesylate (Sigma D9533) (500 nM Hino/C2deOHino for DMT1-deficiency, 1 μM Hino/C2deOHino for FPN1-deficiency, or indicated concentration of small molecule from a 1000X stock in DMSO) was added to the apical side via addition on the wall of the membrane insert without disrupting the cell monolayer. The monolayers were then incubated for four hours at 37° C. unless otherwise noted. A 100 μL aliquot of the basolateral fluid was removed, diluted in scintillation cocktail, and radioactivity was determined on a liquid scintillation counter to quantify relative amounts of ^55Fe transport. To determine intracellular ^55Fe, the basolateral and apical media was removed, and the monolayer was rinsed with PBS (×2). The cells were then lysed with 500 μL of 200 mM NaOH with nutator mixing overnight, and radioactivity was determined on a liquid scintillation counter after diluting the cell lysate in scintillation cocktail. All values were normalized to shControl monolayers unless otherwise noted. Absolute iron levels were determined through calibration of ^55Fe radioactivity levels with known standards and average mg of protein per membrane was determined by protein lysis with RIPA buffer containing protease inhibitors and quantified through a BCA kit according to manufacturer instructions.
TEER determination in Caco-2 monolayers (FIG. 12D and FIG. 14L) To determine Caco-2 membrane integrity, transport studies were performed as described above, except for the use of non-radioactive iron instead of ^55FeCl3. At the indicated time points, the transepithelial electrical resistance (TEER) was determined with an epithelial voltohmmeter and compared to the TEER of the membrane at the beginning of the experiment.

[7] = Iron efflux from liposomes using ferrozine; format: biochemical; details: 5 μM small molecule
Experimental: Iron (III) efflux from POPC liposomes was determined similar to previously reported (64). POPC liposomes were prepared as similarly reported (65) using 30 mM FeCl3, 62.5 mM citrate at pH=7.0 in 25 mM Mes/Tris buffer. External iron was removed by size exclusion chromatography using Sephadex G-50 and eluting with external buffer. External buffer consisted of 62.5 mM ascorbate at pH=7.0 in 25 mM Mes/Tris buffer. The liposomes were diluted to 1 mM phosphorus in this buffer. Ferrozine (Sigma 160601) was added (100X stock in external buffer) to a final concentration of 500 μM. Liposomal suspension was then transferred to a 96-well plate, and either DMSO or 5 μM hinokitiol, C2deOHino, deferiprone, or PIH (40X stock solution in DMSO) were added to initiate the experiment. The OD562 was determined every minute over the course of 2 hours using a plate-reader with continuous shaking at 30° C. to detect the relative amounts of external ferrozine-iron chelate at the indicated times. After 2 hours, liposomes were lysed with Triton-X to give 100% iron efflux.
Iron (II) efflux was performed as described above, however, the internal buffer alternatively consisted of 30 mM FeSO4, 62.5 mM ascorbate at pH=7.0 in 25 mM Mes/Tris buffer and Triton-X lysis was performed after 1 hour.
The rates of iron efflux with increasing concentrations of intraliposomal iron and/or hinokitiol were determined as described above using the indicated concentration of iron and hinokitiol. For the varying concentrations of iron, hinokitiol (10 μM) was added to the POPC liposomes, and the change in absorbance at 562 nm was determined over 2 hours. For the varying concentrations of hinokitiol, 30 mM intraliposomal iron was used as described above. The concentration of iron outside of liposomes was determined using the extinction coefficient for ferrozine-iron (27,900 M^−1 cm^−1) (66). This was used to determine the amount of iron released from liposomes at the indicated times using the total volume for each experiment. Rates of iron efflux were determined after one hour of hinokitiol treatment.

[8] = not run under identical conditions, cited from earlier work; for E^0 Aqueous, literature value: Table 2, in parenthesis; for E^0 literature: Table 6
[9] = Iron (III) binding affinity, EDTA or citrate competition assay; details: for KA for iron (III): EDTA competition (citrate for maltol), pH 7.0; for pFe^III: estimated from known pFe of EDTA (citrate for maltol)
Experimental: as §3

fet3Δftr1Δ yeast [10] = test: Growth rescue of iron-deficient yeast with small molecules on agar plates; format: cell-based, Saccharomyces cerevisiae; details: low iron SD-agar plates, 10 μM FeCl3
[11] = Lipophilicity determination for small molecule iron chelates (octanol-water partition); format: physicochemical; details: octanol-water partition coefficient
Experimental: Concentrations of small molecule in water were determined via UV-Vis spectroscopy compared to known initial standards.

[12] = tested on: hinokitiol-rescued fet3Δftr1Δ yeast; test: Chemical inhibition of yeast cell growth with inhibitors of Pma1, V-ATPase; format: cell-based, Saccharomyces cerevisiae; details: 10 μM hinokitiol, 10 μM FeCl3
Experimental: Increasing dosages of caspofungin (Sigma SML0425), ebselen (Sigma 70530), or bafilomycin B1 (Santa Cruz sc-202072) (40X stocks in DMSO) were added to a yeast suspension (10-fold dilution from OD600=0.1) to give the indicated final dose. EC50 values were calculated from fitting of yeast growth curves using GraphPad PRISM.

SMILES: CC(C)CCc1cccc(O)c(=O)c1 [4-isopentyl tropolone]
restoration of fet3Δftr1Δ yeast growth, small molecule dose-response (fet3Δftr1Δ yeast [1]): no rescue
toxicity to wild type yeast (wild-type yeast (WT)): most toxic

SMILES: Cc1c(O)c(=O)ccn1C [Deferiprone, deferiprone]
E^0 Aqueous ([2]; Table 2): −420 mV vs. N.H.E.
E^0 1:1 MeOH:H2O ([2]; Table 2, 0.1 M Tris, pH 7.2): −410 mV vs. N.H.E.
EC90 [3]: > 100 µM
KA for iron (II) [4]: 2.1 × 10^15
pFe^III, literature value [5]: (21)^§
iron uptake and transepithelial transport [6]: did not promote both uptake and transport
transport of ferrous and ferric iron across model liposomal membranes [7]: minimal transport
E^0 Aqueous, literature value [8]: (−423)^# mV vs. N.H.E.
KA for iron (III) [9]: 1.2 × 10^24
pFe^III [9]: 22^+
growth rescue of fet3Δftr1Δ yeast (fet3Δftr1Δ yeast [10]): no growth rescue

E^0 Aqueous ([2]; Table 2): 131 mV vs. N.H.E.
E^0 1:1 MeOH:H2O ([2]; Table 2, 0.1 M Tris, pH 7.2): 139 mV vs. N.H.E.
KA for iron (II) [4]: 1.2 × 10^15
SMILES: O=C(O)CN(CCN(CC(=O)O)CC(=O)O)CC(=O)O [EDTA]
KA for iron (III), literature value ([5]; Reference 60): (1.7 × 10^24)*
pFe^III, literature value [5]: (22)^∥
E^0 Aqueous, literature value [8]: (137)**** mV vs. N.H.E.

E^0 Aqueous ([2]; Table 6): 181 mV vs. N.H.E.
E^0 1:1 MeOH:H2O ([2]; Table 6, pH 7.2, 500 μM small molecule, 100 μM Fe(NO3)3): 139 mV vs. N.H.E.
SMILES: O=C([O-])CN(CCN(CC(=O)[O-])CC(=O)[O-])CC(=O)[O-].[Fe+3] [Fe^III(EDTA)]
E^0 literature [8]: 137^§ mV vs. N.H.E.

E^0 Aqueous ([2]; Table 2): 41 mV vs. N.H.E.
E^0 1:1 MeOH:H2O ([2]; Table 2, 0.1 M Tris, pH 7.2): 8 mV vs. N.H.E.
KA for iron (II) [4]: 7.8 × 10^13
KA for iron (III) [9]: 3.9 × 10^17
pFe^III [9]: 15.4^±
SMILES: Cc1occc(=O)c1O [Maltol, maltol]
pFe^III, literature value [5]: (15)^§
E^0 Aqueous, literature value [8]: (40)*** mV vs. N.H.E.

SMILES: NC(=O)c1ccc[n+]([C@@H]2O[C@H](COP(=O)([O-])OP(=O)(O)OC[C@H]3O[C@@H](n4cnc5c(N)ncnc54)[C@H](OP(=O)(O)O)[C@@H]3O)[C@@H](O)[C@H]2O)c1 [NADP^+]
E^0 literature [8]: 108 mV vs. N.H.E.

SMILES: Cc1ncc(CO)c(C=NNC(=O)c2ccncc2)c1O [PIH, pyridoxal isonicotinoyl hydrazone]
EC90 [3]: 31 µM
iron uptake and transepithelial transport [6]: did not promote both uptake and transport
transport of ferrous and ferric iron across model liposomal membranes [7]: minimal transport
growth rescue of fet3Δftr1Δ yeast (fet3Δftr1Δ yeast [10]): no growth rescue

SMILES: O=C(NN=Cc1ccccc1O)c1ccncc1 [SIH, salicylaldehyde isonicotinoyl hydrazone]
iron uptake and transepithelial transport [6]: did not promote both uptake and transport
growth rescue of fet3Δftr1Δ yeast (fet3Δftr1Δ yeast [10]): no growth rescue

SMILES: O=c1cccccc1O [Tropolene]
E^0 Aqueous ([2]; Table 2): 39 mV vs. N.H.E.
E^0 1:1 MeOH:H2O ([2]; Table 2, 0.1 M Tris, pH 7.2): 38 mV vs. N.H.E.
KA for iron (II) [4]: 2.3 × 10^15
logP Fe^III Complex [11]: −0.03
E^0 Aqueous, literature value [8]: (0)** mV vs. N.H.E.
KA for iron (III) [9]: 1.1 × 10^24
pFe^III [9]: 22^+

SMILES: O=c1cccccc1O [Tropolone, tropolone]
restoration of fet3Δftr1Δ yeast growth, small molecule dose-response (fet3Δftr1Δ yeast [1]): shows rescue of Fet3Ftr1 yeast, but only at higher concentrations
toxicity to wild type yeast (wild-type yeast (WT)): does not show toxicity

SMILES: CO/C1=C\C(C)=C\[C@@H](C)[C@@H](O)[C@@H](C)C/C(C)=C/C=C/[C@H](OC)[C@@H]([C@@H](C)[C@@H](O)[C@H](C)[C@@]2(O)C[C@@H](OC(=O)/C=C/C(=O)NC3=C(O)CCC3=O)[C@H](C)[C@@H](C(C)C)O2)OC1=O [bafilomycin, bafilomycin B1]
sensitivity of hinokitiol-rescued fet3Δftr1Δ yeast relative to hinokitiol-treated wild type yeast [12]: increased sensitivity

SMILES: CC[C@H](C)C[C@H](C)CCCCCCCCC(=O)N[C@H]1C[C@@H](O)[C@@H](NCCN)NC(=O)[C@@H]2[C@@H](O)CCN2C(=O)[C@H]([C@H](O)CCN)NC(=O)[C@H]([C@H](O)[C@@H](O)c2ccc(O)cc2)NC(=O)[C@@H]2C[C@@H](O)CN2C(=O)[C@H]([C@@H](C)O)NC1=O [caspofungin]
sensitivity of hinokitiol-rescued fet3Δftr1Δ yeast relative to hinokitiol-treated wild type yeast [12]: equisensitive

SMILES: CC(=O)N(O)CCCCCNC(=O)CCC(=O)N(O)CCCCCNC(=O)CCC(=O)N(O)CCCCCN [deferoxamine, deferoxamine mesylate]
iron uptake and transepithelial transport [6]: did not promote both uptake and transport
